Holding throughout (test): cell-based
In one assay the target is T1, E894K-AR (Homo sapiens, UniProt P10275, E894K).
T1 sequence (P10275 1-920 E894K): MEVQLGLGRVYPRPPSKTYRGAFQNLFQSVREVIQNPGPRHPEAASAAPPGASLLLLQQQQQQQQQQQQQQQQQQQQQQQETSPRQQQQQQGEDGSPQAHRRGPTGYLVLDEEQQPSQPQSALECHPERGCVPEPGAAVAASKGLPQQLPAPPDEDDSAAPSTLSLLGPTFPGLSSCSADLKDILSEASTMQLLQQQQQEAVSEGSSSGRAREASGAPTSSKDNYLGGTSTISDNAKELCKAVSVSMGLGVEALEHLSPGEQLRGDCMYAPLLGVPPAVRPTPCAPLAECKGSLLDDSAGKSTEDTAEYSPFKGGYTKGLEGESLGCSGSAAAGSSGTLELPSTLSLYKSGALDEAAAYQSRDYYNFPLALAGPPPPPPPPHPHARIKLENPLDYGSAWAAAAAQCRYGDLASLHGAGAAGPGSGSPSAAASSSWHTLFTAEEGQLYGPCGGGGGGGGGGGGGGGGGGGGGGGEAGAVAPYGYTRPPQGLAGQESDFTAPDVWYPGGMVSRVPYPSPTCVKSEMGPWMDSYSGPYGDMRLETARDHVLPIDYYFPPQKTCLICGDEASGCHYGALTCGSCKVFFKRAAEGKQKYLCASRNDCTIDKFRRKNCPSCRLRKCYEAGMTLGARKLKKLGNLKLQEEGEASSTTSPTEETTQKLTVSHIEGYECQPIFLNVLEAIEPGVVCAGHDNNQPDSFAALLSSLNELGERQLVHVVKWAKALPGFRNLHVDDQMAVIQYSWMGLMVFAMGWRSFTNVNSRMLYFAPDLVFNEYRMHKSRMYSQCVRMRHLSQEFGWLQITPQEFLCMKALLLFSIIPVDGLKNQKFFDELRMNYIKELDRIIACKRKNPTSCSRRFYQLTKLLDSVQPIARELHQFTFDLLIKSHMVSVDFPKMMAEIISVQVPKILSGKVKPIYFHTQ

The next assay deals with T2, H875Y-AR (Homo sapiens, UniProt P10275, H875Y).
T2 sequence (P10275 1-920 H875Y): T1 sequence (P10275 1-920 E894K) with H875Y, K894E

The next assay concerns the target T3, H875Y/T878A-AR (Homo sapiens, UniProt P10275, H875Y/T878A).
T3 sequence (P10275 1-920 H875Y/T878A): T1 sequence (P10275 1-920 E894K) with H875Y, T878A, K894E

The EC50 is the concentration needed to bring the measured effect to its halfway point.

Substitutions are numbered along the chain they refer to. Bounds are passed on as bounds.

In the case of `C[C@]12CCC(=O)C=C1CC[C@@H]1[C@@H]2[C@@H](O)C[C@@]2(C)[C@H]1CC[C@]2(O)C(=O)CO` [hydrocortisone], the EC50 at E894K-AR is > 500 nM; on H875Y-AR, > 500 nM; at H875Y/T878A-AR, 105 nM.
